Assay results reported in PubChem BioAssay AID2060493 (Molecular Pharmacology Branch, DTP, NCI, 2025).
“And” between values parts separate entries of the source, which are not always exact repeats. Identical values can stand only once. Blank lines part the entries; values can stand above or below the compound they belong to.

System: 616215-338-R-J1-PDC tumor spheroids, viability
Assay: Anticancer human tumor 616215-338-R-J1-PDC patient-derived colon adenocarcinoma cell line growth inhibition [GQUAD]
Details: spheroids with HUVEC and MSC; for viability, T/C: stronger effect = lower value
Excerpt: DNA G-quadruplex Stabilizer Agents in Combinations in Complex Spheroids
A high-throughput screen of multi-cell type tumor spheroids was designed to identify active combinations of DNA G-quadruplex stabilizer agents and targeted small molecules. Complex spheroids include a stromal component modeled by human endothelial cells (HUVEC) and fibroblasts modeled by human mesenchymal stem cells (MSCs). The concentration ranges selected for each drug and investigational agent were based upon clinically achievable concentrations if the clinical Cmax of the agent was known.
Compounds. The drugs and investigational agents: pidnarulex (CX-5461; NSC782164), APTO-253 (NSC789042), BRACO-19 (NSC847499), peposertib (NSC802822), ceralasertib (NSC780249), elimusertib (NSC800525), camonsertib (NSC841442), AZD-1390 (NSC803789), olaparib (NSC753686), talazoparib (NSC767125), ART-558 (NSC835418), sotorasib (NSC818433), MRTX-1133 (NSC836407), SN-38 (NSC673596), topotecan (NSC609699), etoposide (NSC141540), doxorubicin (NSC123127), gemcitabine (NSC613327), 5-fluorouracil (NSC19893), paclitaxel (NSC125973), vemurafenib (NSC761431), panobinostat (NSC761190), R-306465 (JNJ-16241199; NSC773264), adavosertib (NSC754352), TP-3654 (NSC805149), carboplatin (NSC241240), KSQ-4279 (NSC840948), and staurosporine (NSC755774) were obtained from the National Cancer Institute (NCI) Developmental Therapeutics Program Chemical Repository (34). The FDA-approved anticancer drug set is available from the NCI Developmental Therapeutics Program. […] The stock solutions were prepared in dimethyl sulfoxide (DMSO, Sigma-Aldrich, St. Louis, MO, cat. D2650) at 800-fold the tested concentration and stored at -70 degrees C prior to their use. All drugs and investigational agents were tested over a range starting from a high concentration at or near the clinical Cmax and decreasing in half-log increments. If the clinical Cmax for an agent had not been determined, the highest concentration tested was 10 microM.
2.3 Cell Culture. All cells were maintained in an incubator at 37 degrees C and 5% CO2 with 95% humidity. The PDC lines were cultured according to standard operating procedures established by the NCI PDMR. All PDCs were thawed and cultured in Matrigel-coated flasks prepared with a working solution of 1X Ham's F-12 nutrient mix, without supplementation (Invitrogen, cat. 11765054), 100 U/mL penicillin-streptomycin (Invitrogen, cat. 15140122), and 2.5% Matrigel (Corning Inc., cat. 354248) for the first three passages. The 857933-349-R-J2-PDC line was cultured in 6C/Colon 1B media, which includes advanced DMEM/F-12 (Thermo Fisher Scientific, cat. 12634028), 10 mM HEPES (Thermo Fisher Scientific, cat. 15630080), 1X GlutaMAX supplement (Thermo Fisher Scientific, cat. 35050061), 0.1 mg/mL primocin (InvivoGen, cat. ant-pm-2), 10% defined fetal bovine serum, heat inactivated (HyClone Laboratories Inc., cat. SH30070.03HI), 50% L-WRN conditioned media (ATCC, cat. CRL-3276), 1.25 mM N-Acetyl-L-cysteine (Sigma-Aldrich, cat. A9165), 10 mM nicotinamide (Sigma-Aldrich, cat. N0636), 1X B-27 supplement (Thermo Fisher Scientific, cat. 17504044), 1X N-2 supplement (Thermo Fisher Scientific, cat. 17502048), 10 microM Y-27632 dihydrochloride (Tocris Bioscience, cat. 1254), and 50 ng/mL human EGF recombinant protein (Thermo Fisher Scientific, cat. PHG0311). The 485176-168-R4-J1-PDC line was cultured in Panc media, which includes all 6C/Colon 1B media components plus 100 ng/mL human FGF-10 (Thermo Fisher Scientific, cat. 100-26), 500 nM SB-431542 (Selleckchem, cat. S1067), and gastrin (Tocris, cat. 3006).
[…]
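Also: spheroids exposed to agents for 7 days before readout.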
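For viability, T/C in this document: percent viability relative to DMSO vehicle control wells taken as 100%.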

IC50 (curve of compound): 154 nM and 151 nM and 189 nM
Compound: Cc1[nH]c2ccccc2c1CCNCc1ccc(/C=C/C(=O)NO)cc1
viability, T/C (compound 0.000999 µM): 103% and 102% and 97.5% | viability, T/C (compound 0.00316 µM): 95.9% and 93.8% and 101% | viability, T/C (compound 0.00999 µM): 92.1% and 107% and 103% | viability, T/C (compound 0.0316 µM): 108% and 94.3% and 87.4% | viability, T/C (compound 0.0999 µM): 69.3% and 72.3% and 79.7% | viability, T/C (compound 0.316 µM): 17.6% and 10.8% and 27.7%

Compound: C#Cc1c(F)ccc2cc(O)cc(-c3ncc4c(N5CC6CCC(C5)N6)nc(OCC56CCCN5CC(F)C6)nc4c3F)c12 (stereo not drawn) + Cc1[nH]c2ccc(F)cc2c1-c1nc2c3cccnc3c3ncccc3c2[nH]1
IC50 (curve of first compound, second compound 0.0316 µM): > 10000 nM | IC50 (curve of first compound, second compound 0.1 µM): > 10000 nM | IC50 (curve of first compound, second compound 0.316 µM): > 10000 nM | IC50 (curve of first compound, second compound 1 µM): > 10000 nM | IC50 (curve of first compound, second compound 3.16 µM): 8110 nM | IC50 (curve of first compound, second compound 10 µM): 6030 nM | viability, T/C (second compound 0.0316 µM, first compound 0.0316 µM): 104% | viability, T/C (second compound 0.0316 µM, first compound 0.1 µM): 109% | viability, T/C (second compound 0.0316 µM, first compound 0.316 µM): 103% | viability, T/C (second compound 0.0316 µM, first compound 1 µM): 111% | viability, T/C (second compound 0.0316 µM, first compound 3.16 µM): 97.4% | viability, T/C (second compound 0.0316 µM, first compound 10 µM): 73.3% | viability, T/C (second compound 0.1 µM, first compound 0.0316 µM): 107% | viability, T/C (second compound 0.1 µM, first compound 0.1 µM): 111% | viability, T/C (second compound 0.1 µM, first compound 0.316 µM): 126% | viability, T/C (second compound 0.1 µM, first compound 1 µM): 113% | viability, T/C (second compound 0.1 µM, first compound 3.16 µM): 96% | viability, T/C (second compound 0.1 µM, first compound 10 µM): 78.4% | viability, T/C (second compound 0.316 µM, first compound 0.0316 µM): 113% | viability, T/C (second compound 0.316 µM, first compound 0.1 µM): 96.9% | viability, T/C (second compound 0.316 µM, first compound 0.316 µM): 124% | viability, T/C (second compound 0.316 µM, first compound 1 µM): 116% | viability, T/C (second compound 0.316 µM, first compound 3.16 µM): 106% | viability, T/C (second compound 0.316 µM, first compound 10 µM): 56.9% | viability, T/C (second compound 1 µM, first compound 0.0316 µM): 105% | viability, T/C (second compound 1 µM, first compound 0.1 µM): 99.9% | viability, T/C (second compound 1 µM, first compound 0.316 µM): 97.9% | viability, T/C (second compound 1 µM, first compound 1 µM): 108% | viability, T/C (second compound 1 µM, first compound 3.16 µM): 83.8% | viability, T/C (second compound 1 µM, first compound 10 µM): 64.4% | viability, T/C (second compound 3.16 µM, first compound 0.0316 µM): 102% | viability, T/C (second compound 3.16 µM, first compound 0.1 µM): 106% | viability, T/C (second compound 3.16 µM, first compound 0.316 µM): 116% | viability, T/C (second compound 3.16 µM, first compound 1 µM): 94.1% | viability, T/C (second compound 3.16 µM, first compound 3.16 µM): 82.6% | viability, T/C (second compound 3.16 µM, first compound 10 µM): 42.9% | viability, T/C (second compound 10 µM, first compound 0.0316 µM): 97.2% | viability, T/C (second compound 10 µM, first compound 0.1 µM): 101% | viability, T/C (second compound 10 µM, first compound 0.316 µM): 110% | viability, T/C (second compound 10 µM, first compound 1 µM): 82.1% | viability, T/C (second compound 10 µM, first compound 3.16 µM): 60.8% | viability, T/C (second compound 10 µM, first compound 10 µM): 42.4%

IC50 (curve of compound): 126 nM and 137 nM and 203 nM
Compound: CC1COCCN1c1cc(-c2ccnn2C)c2ccnc(-c3ccn[nH]3)c2n1 (stereo not drawn)
viability, T/C (compound 0.0316 µM): 98.8% and 101% and 103% | viability, T/C (compound 0.1 µM): 51.8% and 57% and 69.5% | viability, T/C (compound 0.316 µM): 38.8% and 31.3% and 37% | viability, T/C (compound 1 µM): 29.2% and 23.1% and 26.1% | viability, T/C (compound 3.16 µM): 24.5% and 18.4% and 26.3% | viability, T/C (compound 10 µM): 27.6% and 18.9% and 17.4%

IC50 (curve of compound): 729 nM and 1280 nM and 523 nM
Compound: O=c1[nH]cc(F)c(=O)[nH]1
viability, T/C (compound 0.0316 µM): 108% and 102% and 111% | viability, T/C (compound 0.1 µM): 94.5% and 99.6% and 87% | viability, T/C (compound 0.316 µM): 68.3% and 78.9% and 59.7% | viability, T/C (compound 1 µM): 40.8% and 52.1% and 38% | viability, T/C (compound 3.16 µM): 39.3% and 43.9% and 33.4% | viability, T/C (compound 10 µM): 38.3% and 41.7% and 35.4%
